Laboratory results published in ChEMBL document CHEMBL5050850, “Compositions and methods of using the same for treatment of neurodegenerative and mitochondrial disease” (2020).
pEC50: −log10 of the molar value. Values after ≈ are worked out from the molar mass of the structure shown.

Columns and labels:
HeLa [1] = experiment: Cytotoxicity against human HeLa MKYP cells assessed as percentage of DAPI-positive cells at 50 uM and measured by DAPI staining method; type: toxicity, cell-based
[2] = Induction of mitophagy in human HeLa MKYP cells treated at 6.3 uM with FCCP/oligomycin for 6 hrs and measured by FACS analysis relative to control; type: functional
HeLa [3] = experiment: Cytotoxicity against human HeLa MKYP cells assessed as cell death at 25 uM and measured DAPI staining method assay relative to control; type: toxicity, cell-based
[4] = Induction of mitophagy in human HeLa MKYP cells treated with FCCP/oligomycin for 6 hrs and measured by FACS analysis; type: functional, cell-based
[5] = Ratio of highest compound concentration with no observable mitotoxicity to EC50 of compound to induce mitophagy in human HeLa MKYP cells; type: functional
HeLa [6] = experiment: Cytotoxicity against human HeLa MKYP cells assessed as cell death at 25 uM treated with FCCP/oliogmycin and measured DAPI staining method assay relative to control; type: toxicity, cell-based
[7] = Solubility of compound in PBS; type: physicochemical

| SMILES | pEC50 [4] | solubility [7] | Activity (HeLa [1]) | Activity [2] | Activity ([2]; 6 h, 6.3 µM) | Activity (HeLa [3]) | Ratio [5] | Activity (HeLa [6]) |
| --- | --- | --- | --- | --- | --- | --- | --- | --- |
| CCCCNc1ncnc2[nH]c(-c3ccnn3C)cc12 | – | – | 94.6% | 15% | – | – | – | – |
| FC(F)(F)c1cc2c(NC3CCCc4ccccc43)ncnc2[nH]1 (stereo in doubt; 16) | – | – | 4.5% | – | 10.1% | – | – | – |
| FC(F)(F)c1cc2c(N[C@@H]3CCOc4ccccc43)ncnc2[nH]1 | 5.20 | – | 21.1% | – | – | 3.04% | 8.85 | 21% |
| c1ccc2c(c1)OCC[C@H]2Nc1ncnc2[nH]c(C3CC3)cc12 | 5.70 | – | 17.3% | – | – | 7.26% | – | 17.3% |
| O[C@@H]1Cc2ccccc2[C@H]1Nc1ncnc2[nH]c(C(F)(F)F)cc12 | 4.82 | – | 7.6% | – | – | 2.35% | 1.66 | 7.59% |
| O[C@H]1Cc2ccccc2[C@H]1Nc1ncnc2[nH]c(C(F)(F)F)cc12 | < 4.30 | – | 21.2% | – | – | 2.75% | – | 21.2% |
| CCCCNc1ncnc2[nH]c(C(OCC)C(F)(F)F)cc12 (centres undefined) | – | – | 15.8% | 17.9% | – | – | – | – |
| COc1ccc2c(c1)CCCC2Nc1ncnc2[nH]c(C(F)(F)F)cc12 (centres undefined) | – | – | 95.5% | 29.8% | – | – | – | – |
| CC(=O)N1CCC(Nc2ncnc3[nH]c(C(F)(F)F)cc23)c2ccccc21 (centres undefined) | 4.76 | – | 6.9% | – | – | 2.69% | – | 6.92% |
| FC(F)(F)c1cc2c(NC3CCc4ccccc43)ncnc2[nH]1 (stereo in doubt; 18) | – | – | 1.7% | – | 14.3% | – | – | – |
| O[C@@H]1Cc2ccccc2[C@@H]1Nc1ncnc2[nH]c(C(F)(F)F)cc12 | 5.05 | – | 35.6% | – | – | 5.5% | – | 35.6% |
| CCCCNc1ncnc2[nH]c(-c3ccccc3)cc12 | – | – | 90% | 52% | – | – | – | – |
| CCCCNc1ncnc2[nH]c(C(F)(F)F)cc12 | – | – | 4.6% | 42.3% | – | – | – | – |

Second part, led by results:

| pEC50 [4] | solubility [7] | SMILES | Activity (HeLa [1]) | Activity [2] | Activity ([2]; 6 h, 6.3 µM) | Activity (HeLa [3]) | Ratio [5] | Activity (HeLa [6]) |
| --- | --- | --- | --- | --- | --- | --- | --- | --- |
| 5.96 | – | C[C@H]1CCc2ccccc2[C@H]1Nc1ncnc2[nH]c(C(F)(F)F)cc12 | 12% | – | – | 6.45% | 7.74 | 12% |
| 5.20 | – | CO[C@@H]1COc2ccccc2[C@H]1Nc1ncnc2[nH]c(C(F)(F)F)cc12 | 10.6% | – | – | 2.61% | – | 10.645% |
| 6.22 | 1 µM (≈ 0.346 µg/mL) | C[C@H]1CCc2ccccc2[C@@H]1Nc1ncnc2[nH]c(C(F)(F)F)cc12 | 13.3% | – | – | 3.79% | 8.69 | 13.32% |
| 4.66 | 1 µM (≈ 0.362 µg/mL) | CO[C@@H]1CCc2ccccc2[C@H]1Nc1ncnc2[nH]c(C(F)(F)F)cc12 | 18.4% | – | – | 15.3% | – | 18.4% |
| 5.83 | 1.31 µM (≈ 0.475 µg/mL) | CO[C@H]1CCc2ccccc2[C@@H]1Nc1ncnc2[nH]c(C(F)(F)F)cc12 | 7.7% | – | – | 5.15% | – | 7.67% |
| 5.26 | – | OC[C@H]1CCc2ccccc2[C@@H]1Nc1ncnc2[nH]c(C(F)(F)F)cc12 | 30.9% | – | – | 9.83% | – | 30.87% |
| < 4.30 | 1 µM (≈ 0.348 µg/mL) | OC1CCc2ccccc2C1Nc1ncnc2[nH]c(C(F)(F)F)cc12 (centres undefined) | 12.8% | – | – | 3.79% | – | 12.8% |
